Data: EP4174174A1, “TAILOR-MADE EXTREMOPHILIC FUNGAL LACCASES” (priority 2021, dated 2023)
Like-named read-outs stand apart in the source and are kept apart here.

How the values were obtained:
Format in all cases: biochemical
[1] = molecular target: RY2 laccase (parental enzyme, SEQ ID NO: 1) (basidiomycete PM1, UniProt Q12571)
Experimental: (§1) Flask production and purification. The S. cerevisiae clones expressing selected laccase variants were grown in duplicate, in 100mL flasks with 30mL expression medium (containing […] and 3% ethanol) (Camarero et al. Applied and Environmental Microbiology 2012, 78,5). […] After 3 days of fermentation, cultures were treated as previously described (De Salas et al. Green Chemistry 2019 21, 5374-5385). Purification of the enzymes by High Pressure Liquid Chromatography (HPLC) was carried out in 3 chromatographic steps: two anion exchange steps using a HiPrep-QFF 16/10 column in a 100mL gradient of 0-40% elution buffer, and a MonoQ-HR 5/5 column in a 30mL gradient of 0-25% elution buffer, followed by size exclusion chromatography with a Superdex75. Fractions containing laccase activity (with 3mM ABTS in 50mM citrate-phosphate pH 3) were pooled, dialyzed in Tris-HCI pH 7 and concentrated after each chromatographic step. Enzyme purification was confirmed by the electrophoretic mobility in SDS-PAGE (12% acrylamide) stained with Coomassie brilliant blue.
(§2) To calculate Km and kcat values the average Vmax was represented versus substrate concentration and fitted to a single rectangular hyperbola function in SigmaPlot (version 14.0) software, where parameter "a" was equal to kcat and parameter "b" was equal to Km.

[2] = molecular target: RY2 laccase variant L2 (+F460M; F392N, F396I, F460M) (basidiomycete PM1, UniProt Q12571, F413N/F417I/F481M, form not given)
Experimental: as §1, §2

[3] = system: RY2 laccase variant L4 (+A458L; F392N, F396I, F460M, D263V, A458L); test: Kinetic constants for the oxidation of ABTS and DMP by pure laccase
Experimental: as §1, §2

[4] = system: RY2 laccase variant L3 (+D263V; F392N, F396I, F460M, D263V); test: as above
Experimental: as §1, §2

Chain of RY2 laccase variant L2 (+F460M; F392N, F396I, F460M) (Q12571 entry or part of it F413N/F417I/F481M, form open): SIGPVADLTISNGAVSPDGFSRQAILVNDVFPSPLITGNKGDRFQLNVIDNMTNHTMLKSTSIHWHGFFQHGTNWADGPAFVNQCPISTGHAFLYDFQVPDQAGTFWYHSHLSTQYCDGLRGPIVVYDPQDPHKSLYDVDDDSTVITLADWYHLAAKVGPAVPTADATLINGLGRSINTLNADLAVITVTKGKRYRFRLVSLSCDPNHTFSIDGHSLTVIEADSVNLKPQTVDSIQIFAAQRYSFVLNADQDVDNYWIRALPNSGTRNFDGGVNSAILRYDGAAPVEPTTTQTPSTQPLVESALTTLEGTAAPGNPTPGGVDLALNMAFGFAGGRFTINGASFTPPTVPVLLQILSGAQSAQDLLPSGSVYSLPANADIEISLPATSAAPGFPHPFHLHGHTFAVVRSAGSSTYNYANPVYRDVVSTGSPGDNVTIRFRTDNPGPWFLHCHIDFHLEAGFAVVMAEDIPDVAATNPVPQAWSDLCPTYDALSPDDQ
Chain of RY2 laccase (parental enzyme, SEQ ID NO: 1) (Q12571 entry or part of it): as the sequence (Q12571 entry or part of it F413N/F417I/F481M, form open) above

Row | Structure (SMILES) | kcat ([1]; substrate DMP, pH 5) | kcat ([2]; substrate DMP, pH 8) | kcat ([2]; substrate DMP, pH 9) | Km ([3]; substrate DMP, pH 8) | Km ([3]; substrate DMP, pH 9) | kcat ([3]; substrate DMP, pH 9) | Km ([3]; substrate DMP, pH 10) | kcat ([3]; substrate DMP, pH 10) | Km ([4]; substrate DMP, pH 8) | kcat ([4]; substrate DMP, pH 8) | Km ([4]; substrate DMP, pH 9) | kcat ([4]; substrate DMP, pH 9) | Km ([4]; substrate DMP, pH 10) | kcat ([4]; substrate DMP, pH 10) | kcat ([1]; substrate ABTS, pH 3) | kcat ([2]; substrate ABTS, pH 3) | Km ([3]; substrate ABTS, pH 3) | kcat ([3]; substrate ABTS, pH 3) | Km ([4]; substrate ABTS, pH 3) | kcat ([4]; substrate ABTS, pH 3)
1 | COc1cccc(OC)c1O [DMP, 2,6-dimethoxyphenol] | 123 ± 6 s⁻¹ | 89 ± 6.2 s⁻¹ | 9.5 ± 0.1 s⁻¹ | 1710 ± 100 µM | 430 ± 10 µM | 26 ± 0.28 s⁻¹ | 22 ± 2 µM | 2 ± 0.05 s⁻¹ | 1500 ± 120 µM | 82.3 ± 7.6 s⁻¹ | 300 ± 30 µM | 21.7 ± 1.3 s⁻¹ | 27 ± 1 µM | 0.79 ± 0.03 s⁻¹ |  |  |  |  |  | 
2 | CCn1c(=NN=c2sc3cc(S(=O)(=O)O)ccc3n2CC)sc2cc(S(=O)(=O)O)ccc21 [ABTS] |  |  |  |  |  |  |  |  |  |  |  |  |  |  | 543 ± 17 s⁻¹ | 231 ± 5.6 s⁻¹ | 680 ± 40 µM | 136 ± 2.7 s⁻¹ | 460 ± 40 µM | 123 ± 5.5 s⁻¹
